Assay results: article PMC5889738 (Biomaterials, 2018)

System: OCI-AML2 cells
Experiment: flow cytometry of apoptosis and live-dead cell staining
Assay type: cell-based, human
Conditions: OCI-AML2, 6 μM, 48 h

SMILES: COc1ccc(C2=N[C@@H](c3ccc(Cl)cc3)[C@@H](c3ccc(Cl)cc3)N2C(=O)N2CCNC(=O)C2)c(OC(C)C)c1 [Nutlin-3]
- apoptosis / sensitivity of OCI-AML2: significantly less sensitive
